Source: US9469631B2 (Boehringer Ingelheim International GmbH, priority 2012, dated 2016)

Target: human GPR119 (Homo sapiens (Human), UniProt Q8TDV5)
Assay: AlphaScreen cAMP assay in MIN6 cells stably transfected with human GPR119
Type: cell-based
Settings: Min-6/hGPR119 cells, 45 min incubation at room temperature
Procedure: The compounds of formula I according to the invention modulate the activity of the G-protein-coupled receptor GPR119. The effect of the compounds on the activation of GPR119 and on the stimulation of intracellular cAMP concentration is determined using the AlphaScreen cAMP Assay Kit (Cat. No. #6760625R) made by PerkinElmer.
MIN6 cells [Miyazaki J et al. Endocrinology. 1990 July; 127(1):126-32] are stably transfected with an expression vector for human GPR119 cDNA (Acc. No. NP_848566). Min-6/hGPR119 cells are cultured in DMEM, 10% FBS, 50 μM β-mercaptoethanol, 0.3 mg/mL Geniticin, 2 mM GlutaMAX at 37° C. 5% CO2. For the assay, the cells are seeded in Optiplates (white, 384-well, 160W-barcoded, TC, sterile with lid, Cat. No. #6007688 (Perkin Elmer); 10000 cells/well; 50 μl). The plates covered with lids are then incubated for 24 hours at 37° C./5% CO2. After the medium is aspirated from the wells completely, 10 μl of the test compound are added, the compounds are diluted using stimulating buffer (140 mM NaCl, 3.6 mM KCl, 0.5 mM NaH2PO4, 0.5 mM MgSO4, 1.5 mM CaCl2, 10 mM Hepes, 5 mM NaHCO3; pH 7.4. 0.5 mM IBMX and 0.1% BSA, the final DMSO concentration is 1%). After 45 minutes incubation at room temperature (approx. 20° C.), the cAMP concentrations are determined using the AlphaScreen cAMP Assay Kit (Cat. No. #6760625R from PerkinElmer).

human GPR119, sequence (Q8TDV5 whole entry): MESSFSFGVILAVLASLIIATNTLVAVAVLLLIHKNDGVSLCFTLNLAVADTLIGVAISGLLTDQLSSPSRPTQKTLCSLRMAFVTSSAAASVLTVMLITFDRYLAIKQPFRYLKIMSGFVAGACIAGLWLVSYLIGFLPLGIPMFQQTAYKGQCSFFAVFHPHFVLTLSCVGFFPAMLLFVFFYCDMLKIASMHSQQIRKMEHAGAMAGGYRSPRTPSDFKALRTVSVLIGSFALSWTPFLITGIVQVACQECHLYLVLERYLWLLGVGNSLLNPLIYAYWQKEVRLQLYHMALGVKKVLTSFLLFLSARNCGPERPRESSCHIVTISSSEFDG

Row | SMILES | EC50 [nM]
1 | Cn1cncc1-c1ccc(C(=O)N(C2CC2)C2CCN(C(=O)OC(C)(C)C)CC2)cc1 [Example 42, 4-{Cyclopropyl-[4-(3-methyl-3H-imidazol-4-yl)-benzoyl]-amino}-piperidine-1-carboxylic acid tert-butyl ester] | 152
2 | CC(C)(C)OC(=O)N1CCC(N(C(=O)c2ccc(-c3ccnnc3)cc2)C2CC2)CC1 [Example 23, 4-[Cyclopropyl-(4-pyridazin-4-yl-benzoyl)-amino]-piperidine-1-carboxylic acid tert-butyl ester] | 236
3 | CC(C)(C)OC(=O)N1CCC(N(C(=O)c2ccc(-n3cccc3)cc2)C2CC2)CC1 [Example 64, 4-[Cyclopropyl-(4-pyrrol-1-yl-benzoyl)-amino]-piperidine-1-carboxylic acid tert-butyl ester] | 278
4 | CCOC(=O)N1CCC(N(C(=O)c2ccc(-c3cnco3)cc2)C2CC2)CC1 [Example 117, 4-[Cyclopropyl-(4-oxazol-5-yl-benzoyl)-amino]-piperidine-1-carboxylic acid ethyl ester] | 222
5 | COc1ccc(-c2ccc(C(=O)N(C3CC3)C3CCN(C(=O)OC(C)(C)C)CC3)cc2)cn1 [Example 96, 4-{Cyclopropyl-[4-(6-methoxy-pyridin-3-yl)-benzoyl]-amino}-piperidine-1-carboxylic acid tert-butyl ester] | 131
6 | CC(C)(OC(=O)N1CCC(N(C(=O)c2ccc(-c3cnco3)cc2)C2CC2)CC1)C(F)(F)F [Example 130, 4-[Cyclopropyl-(4-oxazol-5-yl-benzoyl)-amino]-piperidine-1-carboxylic acid 2,2,2-trifluoro-1,1-dimethyl-ethyl ester] | 10
7 | CNC(=O)c1ccc(-c2ccc(C(=O)N(C3CC3)C3CCN(C(=O)OC(C)(C)C)CC3)cc2)nc1 [Example 30, 4-{Cyclopropyl-[4-(5-methylcarbamoyl-pyridin-2-yl)-benzoyl]-amino}-piperidine-1-carboxylic acid tert-butyl ester] | 171
8 | CC(C)(C)OC(=O)N1CCC(N(C(=O)c2ccc(-c3cocn3)cc2)C2CC2)CC1 [Example 44, 4-[Cyclopropyl-(4-oxazol-4-yl-benzoyl)-amino]-piperidine-1-carboxylic acid tert-butyl ester] | 298
9 | CC(=O)Nc1nc(-c2ccc(C(=O)N(C3CC3)C3CCN(C(=O)OC(C)(C)C)CC3)cc2)ns1 [Example 74, 4-{[4-(5-Acetylamino-[1,2,4]thiadiazol-3-yl)-benzoyl]-cyclopropyl-amino}-piperidine-1-carboxylic acid tert-butyl ester] | 886
10 | CC(C)(C)OC(=O)N1CCC(N(C(=O)c2ccc(-c3cnco3)cc2)C2CC2)CC1 [Example 53, 4-[Cyclopropyl-(4-oxazol-5-yl-benzoyl)-amino]-piperidine-1-carboxylic acid tert-butyl ester] | 33
11 | CC(C)(C)OC(=O)N1CCC(N(C(=O)c2ccc(-c3ccccc3C#N)cc2)C2CC2)CC1 [Example 94, 4-[(2′-Cyano-biphenyl-4-carbonyl)-cyclopropyl-amino]-piperidine-1-carboxylic acid tert-butyl ester] | 317
12 | CC(C)(C)OC(=O)N1CCC(N(C(=O)c2ccc(-c3cccnc3)cc2)C2CC2)CC1 [Example 75, 4-[Cyclopropyl-(4-pyridin-3-yl-benzoyl)-amino]-piperidine-1-carboxylic acid tert-butyl ester] | 651
13 | CC(C)(C)COC(=O)N1CCC(N(C(=O)c2ccc(-c3cnco3)cc2)C2CC2)CC1 [Example 121, 4-[Cyclopropyl-(4-oxazol-5-yl-benzoyl)-amino]-piperidine-1-carboxylic acid 2,2-dimethyl-propyl ester] | 45
14 | Cc1ncoc1-c1ccc(C(=O)N(C2CC2)C2CCN(C(=O)OC(C)(C)C)CC2)cc1 [Example 10, 4-{Cyclopropyl-[4-(4-methyl-oxazol-5-yl)-benzoyl]-amino}-piperidine-1-carboxylic acid tert-butyl ester] | 75
15 | COC1CN(C(=O)OC(C)(C)C)CCC1N(C(=O)c1ccc(-c2cnco2)cc1)C1CC1 (stereo not shown) [Example 45, 4-[Cyclopropyl-(4-oxazol-5-yl-benzoyl)-amino]-3-methoxy-piperidine-1-carboxylic acid tert-butyl ester] | 15
16 | CC(C)(C)OC(=O)N1CCC(N(C(=O)c2ccc(-c3ccncc3C#N)c(F)c2)C2CC2)CC1 [Example 34, 4-{[4-(3-Cyano-pyridin-4-yl)-3-fluoro-benzoyl]-cyclopropyl-amino}-piperidine-1-carboxylic acid tert-butyl ester] | 21

Row | SMILES | EC50 [nM]
17 | CC(=O)Nc1nnc(-c2ccc(C(=O)N(C3CC3)C3CCN(C(=O)OC(C)(C)C)CC3)cc2)s1 [Example 77, 4-{[4-(5-Acetylamino-[1,3,4]thiadiazol-2-yl)-benzoyl]-cyclopropyl-amino}-piperidine-1-carboxylic acid tert-butyl ester] | 394
18 | CC(C)(C)OC(=O)N1CCC(N(C(=O)c2ccc(-c3cncnc3)cc2)C2CC2)CC1 [Example 69, 4-[Cyclopropyl-(4-pyrimidin-5-yl-benzoyl)-amino]-piperidine-1-carboxylic acid tert-butyl ester] | 158
19 | Cc1ncc(-c2ccc(C(=O)N(C3CC3)C3CCN(C(=O)OC(C)(C)C)CC3)cc2)o1 [Example 43, 4-{Cyclopropyl-[4-(2-methyl-oxazol-5-yl)-benzoyl]-amino}-piperidine-1-carboxylic acid tert-butyl ester] | 149
20 | CC(C)(C)OC(=O)N1CCC(N(C(=O)c2ccc(-c3ccc(S(C)(=O)=O)cn3)cc2)C2CC2)CC1 [Example 21, 4-{Cyclopropyl-[4-(5-methanesulfonyl-pyridin-2-yl)-benzoyl]-amino}-piperidine-1-carboxylic acid tert-butyl ester] | 74
21 | COc1ncc(-c2ccc(C(=O)N(C3CC3)C3CCN(C(=O)OC(C)(C)C)CC3)cc2)cn1 [Example 99, 4-{Cyclopropyl-[4-(2-methoxy-pyrimidin-5-yl)-benzoyl]-amino}-piperidine-1-carboxylic acid tert-butyl ester] | 55
22 | CCOc1ccc(-c2ccc(C(=O)N(C3CC3)C3CCN(C(=O)OC(C)(C)C)CC3)cc2)cc1 [Example 87, 4-[Cyclopropyl-(4′-ethoxy-biphenyl-4-carbonyl)-amino]-piperidine-1-carboxylic acid tert-butyl ester] | 256
23 | CC(C)(O)COC(=O)N1CCC(N(C(=O)c2ccc(-c3cnco3)cc2)C2CC2)CC1 [Example 15, 4-[Cyclopropyl-(4-oxazol-5-yl-benzoyl)-amino]-piperidine-1-carboxylic acid 2-hydroxy-2-methyl-propyl ester] | 4460
24 | Cc1nc(-c2ccc(C(=O)N(C3CC3)C3CCN(C(=O)OC(C)(C)C)CC3)cc2)no1 [Example 67, 4-{Cyclopropyl-[4-(5-methyl-[1,2,4]oxadiazol-3-yl)-benzoyl]-amino}-piperidine-1-carboxylic acid tert-butyl ester] | 316
25 | CCOc1ccc(-c2ccc(C(=O)N(C3CC3)C3CCN(C(=O)OC(C)(C)C)CC3)cc2)cn1 [Example 109, 4-{Cyclopropyl-[4-(6-ethoxy-pyridin-3-yl)-benzoyl]-amino}-piperidine-1-carboxylic acid tert-butyl ester] | 316
26 | O=C(Oc1ccccc1)N1CCC(N(C(=O)c2ccc(-c3cnco3)cc2)C2CC2)CC1 [Example 124, 4-[Cyclopropyl-(4-oxazol-5-yl-benzoyl)-amino]-piperidine-1-carboxylic acid phenyl ester] | 88
27 | CC(C)COC(=O)N1CCC(N(C(=O)c2ccc(-c3cnco3)cc2)C2CC2)CC1 [Example 125, 4-[Cyclopropyl-(4-oxazol-5-yl-benzoyl)-amino]-piperidine-1-carboxylic acid isobutyl ester] | 45
28 | CC(C)(C)OC(=O)N1CCC(N(C(=O)c2ccc(-c3ccc(C#N)s3)cc2)C2CC2)CC1 [Example 89, 4-{[4-(5-Cyano-thiophen-2-yl)-benzoyl]-cyclopropyl-amino}-piperidine-1-carboxylic acid tert-butyl ester] | 24
29 | O=C(OC1CCCC1)N1CCC(N(C(=O)c2ccc(-c3cnco3)cc2)C2CC2)CC1 [Example 128, 4-[Cyclopropyl-(4-oxazol-5-yl-benzoyl)-amino]-piperidine-1-carboxylic acid cyclopentyl ester] | 34
30 | Cc1cn(-c2ccc(C(=O)N(C3CC3)C3CCN(C(=O)OC(C)(C)C)CC3)cc2)c(C)n1 [Example 55, 4-{Cyclopropyl-[4-(2,4-dimethyl-imidazol-1-yl)-benzoyl]-amino}-piperidine-1-carboxylic acid tert-butyl ester] | 927
31 | CC(C)(C)OC(=O)N1CCC(N(C(=O)c2ccc(-c3ocnc3I)cc2)C2CC2)CC1 [Example 4, 4-{Cyclopropyl-[4-(4-iodo-oxazol-5-yl)-benzoyl]-amino}-piperidine-1-carboxylic acid tert-butyl ester] | 816
